Experiment: xn = mol fraction of the nth substance listed
Details: 101 kPa, Liquid

CCCCOCC [butyl ethyl ether] + CC(C)CCl
viscosity [mPa·s]
Details	283.15 K	288.15 K	293.15 K	298.15 K	303.15 K	308.15 K	313.15 K
x2 = 0	0.4796	0.4509	0.4242	0.399	0.3756	0.356	0.3416
x2 = 0.0493	0.4797	0.4512	0.4246	0.3993	0.3762	0.3569	0.3423
x2 = 0.1004	0.4799	0.4514	0.4248	0.3998	0.3771	0.3578	0.3432
x2 = 0.2001	0.4812	0.4526	0.4259	0.4012	0.3793	0.3603	0.3455
x2 = 0.3012	0.4836	0.4548	0.4279	0.4035	0.3822	0.3634	0.3481
x2 = 0.4021	0.4866	0.4574	0.4305	0.4063	0.3855	0.3667	0.3511
x2 = 0.5025	0.4903	0.4609	0.4337	0.4097	0.3893	0.3704	0.3543
x2 = 0.6007	0.4946	0.4649	0.4374	0.4133	0.3933	0.3745	0.3576
x2 = 0.6993	0.4994	0.4692	0.4412	0.4171	0.3975	0.3786	0.3612
x2 = 0.7994	0.5044	0.4736	0.4453	0.4211	0.4021	0.3832	0.3649
x2 = 0.8993	0.5099	0.4783	0.4496	0.4253	0.4065	0.3875	0.3687
x2 = 0.9491	0.5126	0.4808	0.4518	0.4274	0.4089	0.3898	0.3706

CCCCOCC [butyl ethyl ether] + CCC(C)Cl
viscosity [mPa·s]
Details	283.15 K	288.15 K	293.15 K	298.15 K	303.15 K	308.15 K	313.15 K
x2 = 0	0.4796	0.4509	0.4242	0.399	0.3756	0.356	0.3416
x2 = 0.0525	0.4785	0.4498	0.4233	0.3983	0.3749	0.3552	0.3404
x2 = 0.0974	0.4776	0.4489	0.4223	0.3974	0.374	0.3541	0.3392
x2 = 0.2001	0.475	0.4462	0.4203	0.3963	0.3732	0.3533	0.3379
x2 = 0.3027	0.4724	0.4436	0.4183	0.395	0.3724	0.3529	0.3372
x2 = 0.4	0.4697	0.4409	0.4165	0.394	0.3718	0.3523	0.3364
x2 = 0.5248	0.4665	0.4384	0.4148	0.3933	0.3716	0.3523	0.3361
x2 = 0.6016	0.4647	0.4368	0.4139	0.393	0.3716	0.3523	0.336
x2 = 0.7006	0.463	0.4353	0.413	0.393	0.3721	0.353	0.3363
x2 = 0.7993	0.462	0.4346	0.4132	0.3939	0.3735	0.3545	0.3376
x2 = 0.8997	0.4619	0.4349	0.4143	0.3959	0.3759	0.3569	0.3396
x2 = 0.9502	0.4623	0.4356	0.4152	0.3972	0.3775	0.3587	0.3414

CCC(C)Cl (configuration not stated) [2-chlorobutane] + COC(C)(C)C
viscosity [mPa·s]
Details	283.15 K	288.15 K	293.15 K	298.15 K	303.15 K	308.15 K	313.15 K
x1 = 0.0434	0.3916	0.3664	0.3507	0.3353	0.3177	0.3019	0.287
x1 = 0.0928	0.3949	0.3694	0.3536	0.3383	0.3207	0.3048	0.2897
x1 = 0.1824	0.4008	0.3752	0.3591	0.3436	0.3261	0.3099	0.2948
x1 = 0.2774	0.4072	0.3816	0.365	0.3495	0.3319	0.3155	0.3002
x1 = 0.3786	0.4141	0.3883	0.3715	0.3558	0.338	0.3215	0.306
x1 = 0.4751	0.4208	0.3951	0.3779	0.3619	0.3441	0.3273	0.3117
x1 = 0.584	0.4287	0.4029	0.3853	0.3691	0.351	0.334	0.3182
x1 = 0.6819	0.436	0.4101	0.3921	0.3757	0.3575	0.3401	0.3241
x1 = 0.8032	0.4456	0.4195	0.4009	0.3843	0.3657	0.3481	0.3317
x1 = 0.9015	0.4536	0.4274	0.4084	0.3915	0.3727	0.3547	0.3379
x1 = 0.9512	0.458	0.4318	0.4125	0.3954	0.3764	0.3581	0.3411
x1 = 1	0.4631	0.4365	0.4167	0.3993	0.38	0.3615	0.3443
